Source: paper PMC11148080, “Ru(II)-based complexes containing 2-thiouracil derivatives suppress liver cancer stem cells by targeting NF-κB and Akt/mTOR signaling” (Cell Death Discovery, 2024)
Where “and” joins values, the source holds several entries; their conditions need not be identical. Identical values can stand only once.

What was measured:
MDA-MB-231 = assay: Alamar Blue cytotoxicity; format: cell-based, human; conditions: for IC50: MDA-MB-231, 72 h
Description: (§1) The Alamar Blue assay was used to measure cell viability, as previously described. Adherent cells were seeded in 96-well plates at a density of 7 × 10^3 cells per well, and suspended cells were seeded at 3 × 10^4 cells per well. Drugs were added to each well after overnight incubation for adherent cells or immediately after seeding for suspension cells, and incubation continued for an additional 72 h. The positive control included doxorubicin (Laboratorio IMA S.A.I.C., Buenos Aires, Argentina). Four hours (for cell lines) or 24 h (for primary cultures) before the end of incubation, 20 μL of resazurin (30 μM) (Sigma‒Aldrich Co. St. Louis, MO, USA) was added to each well. The absorbance at 570 and 600 nm was measured using a SpectraMax 190 microplate reader (Molecular Devices, Sunnyvale, CA, USA).

HCT116 = assay: Alamar Blue cytotoxicity; format: cell-based, human; conditions: for IC50: HCT116, 72 h
Description: as §1

HepG2 = assay: Alamar Blue cytotoxicity; format: cell-based, human; conditions: for IC50: HepG2, 72 h
Description: as §1

HSC-3 = assay: Alamar Blue cytotoxicity; format: cell-based, human; conditions: for IC50: HSC-3, 72 h
Description: as §1

Jurkat = assay: Alamar Blue cytotoxicity; format: cell-based, human; conditions: for IC50: Jurkat, 72 h
Description: as §1

DU 145 = assay: Alamar Blue cytotoxicity; format: cell-based, human; conditions: for IC50: DU 145, 72 h
Description: as §1

PANC-1 = assay: Alamar Blue cytotoxicity; format: cell-based, human; conditions: for IC50: PANC-1, 72 h
Description: as §1

CAL 27 = assay: Alamar Blue cytotoxicity; format: cell-based, human; conditions: for IC50: CAL 27, 72 h
Description: as §1

K-562 = assay: Alamar Blue cytotoxicity; format: cell-based, human; conditions: for IC50: K-562, 72 h
Description: as §1

HL-60 = assay: Alamar Blue cytotoxicity; format: cell-based, human; conditions: for IC50: HL-60, 72 h
Description: as §1, with “The positive control included doxorubicin (Laboratorio IMA S.A.I.C., Buenos Aires, Argentina).” left out

MRC-5 = assay: Alamar Blue cytotoxicity, noncancerous cells; format: cell-based, human; conditions: MRC-5, 72 h
Description: as §1

BJ = assay: Alamar Blue cytotoxicity, noncancerous cells; format: cell-based, human; conditions: 72 h
Description: as §1

HepG2 cell xenografts = assay: HCC tumor growth xenograft model; format: in vivo, C.B-17 SCID mice; conditions: 21 days; for mean tumor weight: negative control 981 mg
Description: A total of 48 C.B-17 SCID mice (male and female, 20–25 g) were obtained from the FIOCRUZ-BA animal facility (Salvador, Bahia, Brazil) in accordance with experimental methods authorized by the local Animal Ethics Committee (#22/2021). All mice were fed a standard pellet diet (food and water available ad libitum) and housed in an artificially lit room (12 h dark/light cycle).
HepG2 cells (10^7 cells/500 μL) were implanted subcutaneously into the left front armpit of mice as previously described. The mice were administered intraperitoneally (200 μL/animal) once a day for 3 weeks. […] The animals were euthanized with an anesthetic overdose (thiopental, 100 mg/kg) 1 day after treatment, and the tumors were removed, weighed, and processed for histological examination.

PBMC = assay: Alamar Blue cytotoxicity, noncancerous cells; format: cell-based, human; conditions: 72 h
Description: as §1, with “USA). […]” for “USA).”
PBMC heath peripheral blood mononuclear human primary cell […]
Then, the PBMCs were resuspended in RPMI 1640 or DMEM-F12 supplemented with 20% FBS and 1% antibiotics. The cells were plated at 5 × 10^5 cells/well. Concanavalin A (10 μg/mL, Sigma‒Aldrich) was used as a mitogen to trigger cell division in T lymphocytes and was added at the beginning of the culture. The Research Ethics Committee of the Oswaldo Cruz Foundation

HepG2 cells = assay: Annexin V-FITC/PI apoptosis detection; format: cell-based, human; conditions: for apoptosis (annexin V-FITC+ cells): HepG2, 72 h, control 4.8%; for percentage of necrotic cells: 24, 48, 72 h
Description: For apoptosis detection, cell viability was quantified using Annexin V-FITC/PI (FITC Annexin V Apoptosis Detection Kit I, BD Biosciences, San Jose, CA, USA) according to the manufacturer’s instructions. The cells were also stained with rhodamine 123 (5 μg/mL, Sigma Aldrich Co.) for 15 min at 37 °C in the dark to assess the mitochondrial transmembrane potential. After the cells were washed, they were incubated in saline for 30 min in the dark at 37 °C and analyzed by flow cytometry. For all flow cytometry analyses, cellular fluorescence was measured using a BD LSRFortessa cytometer, BD FACSDiva software (BD Biosciences) and FlowJo software 10 (FlowJo LLC; Ashland, OR, USA). A minimum of 10,000 events were obtained per sample for intracellular staining, and a minimum of 30,000 events per sample were acquired for cell surface protein staining. Doublets were removed using FSC-A vs FCS-H and SCC-A vs SCC-H. Cellular debris was excluded from the analysis.

F[P-](F)(F)(F)(F)F.O=c1cc[nH]c([S][Ru+])n1.c1ccc(-c2ccccn2)nc1.c1ccc(P(c2ccccc2)c2ccccc2)cc1.c1ccc(P(c2ccccc2)c2ccccc2)cc1 [Complex 1, trans-[Ru(2TU)(PPh3)2(bipy)]PF6]
IC50 (MDA-MB-231): 2.62 µM
IC50 (HCT116): 4.74 µM
IC50 (HepG2): 3.49 µM
IC50 (HSC-3): 8.36 µM
IC50 (Jurkat): 5.07 µM
IC50 (DU 145): 7.6 µM
IC50 (PANC-1): 9.45 µM
IC50 (CAL 27): 2.66 µM
IC50 (K-562): 6.77 µM
IC50 (HL-60): 5.71 µM
IC50 (MRC-5): 17.7 µM
IC50 (BJ): 7 µM
tumor inhibition (HepG2 cell xenografts; 2 mg/kg i.p. once a day): 35.3%
mean tumor weight (HepG2 cell xenografts; 2 mg/kg i.p. once a day): 635 mg
tumor inhibition (HepG2 cell xenografts; 4 mg/kg i.p. once a day): 53.6%
mean tumor weight (HepG2 cell xenografts; 4 mg/kg i.p. once a day): 455 mg
IC50 (PBMC): 14.2 µM
apoptosis (annexin V-FITC+ cells) (HepG2 cells; 2 µM): 9.0%
apoptosis (annexin V-FITC+ cells) (HepG2 cells; 4 µM): 48.9%
apoptosis (annexin V-FITC+ cells) (HepG2 cells; 8 µM): 76.1%
percentage of necrotic cells (HepG2 cells; HepG2): no significant increase

Cc1cc(=O)nc([S][Ru+])[nH]1.F[P-](F)(F)(F)(F)F.c1ccc(-c2ccccn2)nc1.c1ccc(P(c2ccccc2)c2ccccc2)cc1.c1ccc(P(c2ccccc2)c2ccccc2)cc1 [Complex 2, trans-[Ru(6m2TU)(PPh3)2(bipy)]PF6]
IC50 (MDA-MB-231): 2.95 µM
IC50 (HCT116): 4.52 µM
IC50 (HepG2): 3.17 µM
IC50 (HSC-3): 5.55 µM
IC50 (Jurkat): 4.94 µM
IC50 (DU 145): 3.74 µM
IC50 (PANC-1): 4.09 µM
IC50 (CAL 27): 4.31 µM
IC50 (K-562): 7.69 µM
IC50 (HL-60): 4.11 µM
IC50 (MRC-5): 15.2 µM
IC50 (MRC-5; listed as 2): 15.2 µM
IC50 (BJ): 7.8 µM and 7.79 µM
tumor inhibition (HepG2 cell xenografts; 2 mg/kg i.p. once a day): 63.6%
mean tumor weight (HepG2 cell xenografts; 2 mg/kg i.p. once a day): 358 mg
tumor inhibition (HepG2 cell xenografts; 4 mg/kg i.p. once a day): 65.4%
mean tumor weight (HepG2 cell xenografts; 4 mg/kg i.p. once a day): 340 mg
IC50 (PBMC): 11.7 µM
apoptosis (annexin V-FITC+ cells) (HepG2 cells; 1.5 µM): 9.1%
apoptosis (annexin V-FITC+ cells) (HepG2 cells; 3 µM): 40.7%
apoptosis (annexin V-FITC+ cells) (HepG2 cells; 6 µM): 76.9%
percentage of necrotic cells (HepG2 cells; HepG2): no significant increase

COc1cccc2c1C(=O)c1c(O)c3c(c(O)c1C2=O)C[C@@](O)(C(=O)CO)C[C@@H]3O[C@H]1C[C@H](N)[C@H](O)[C@H](C)O1 [Doxorubicin]
IC50 (MDA-MB-231; Homo sapiens): 0.43 µM
Selectivity index (MDA-MB-231; IC50 BJ/IC50 MDA-MB-231): 4.30
Selectivity index (MDA-MB-231; IC50 MRC-5/IC50 MDA-MB-231): 3.95
Selectivity index (MDA-MB-231; IC50 PBMC/IC50 MDA-MB-231): 3.09
IC50 (HCT116; Homo sapiens, HCT-116): 0.86 µM
Selectivity index (HCT116; IC50 BJ/IC50 HCT116): 2.15
Selectivity index (HCT116; IC50 MRC-5/IC50 HCT116): 1.98
Selectivity index (HCT116; IC50 PBMC/IC50 HCT116): 1.55
IC50 (HepG2; Homo sapiens): 0.32 µM
Selectivity index (HepG2; IC50 BJ/IC50 HepG2): 5.78
Selectivity index (HepG2; IC50 MRC-5/IC50 HepG2): 5.31
Selectivity index (HepG2; IC50 PBMC/IC50 HepG2): 4.16
IC50 (HSC-3; Homo sapiens): 0.69 µM
Selectivity index (HSC-3; IC50 BJ/IC50 HSC-3): 2.68
Selectivity index (HSC-3; IC50 MRC-5/IC50 HSC-3): 2.46
Selectivity index (HSC-3; IC50 PBMC/IC50 HSC-3): 1.93
IC50 (Jurkat; Homo sapiens): 0.06 µM
Selectivity index (Jurkat; IC50 BJ/IC50 Jurkat): 30.83
Selectivity index (Jurkat; IC50 MRC-5/IC50 Jurkat): 28.33
Selectivity index (Jurkat; IC50 PBMC/IC50 Jurkat): 22.17
IC50 (DU 145; Homo sapiens): 0.24 µM
Selectivity index (DU 145; IC50 BJ/IC50 DU 145): 7.71
Selectivity index (DU 145; IC50 MRC-5/IC50 DU 145): 7.08
Selectivity index (DU 145; IC50 PBMC/IC50 DU 145): 5.54
IC50 (PANC-1; Homo sapiens): 1.11 µM
Selectivity index (PANC-1; IC50 BJ/IC50 PANC-1): 1.67
Selectivity index (PANC-1; IC50 MRC-5/IC50 PANC-1): 1.53
Selectivity index (PANC-1; IC50 PBMC/IC50 PANC-1): 1.20
IC50 (CAL 27; Homo sapiens): 0.11 µM
Selectivity index (CAL 27; IC50 BJ/IC50 CAL 27): 16.82
Selectivity index (CAL 27; IC50 MRC-5/IC50 CAL 27): 15.45
Selectivity index (CAL 27; IC50 PBMC/IC50 CAL 27): 12.09
IC50 (K-562; Homo sapiens, K562): 1.65 µM
Selectivity index (K-562; IC50 BJ/IC50 K-562): 1.12
Selectivity index (K-562; IC50 MRC-5/IC50 K-562): 1.03
Selectivity index (K-562; IC50 PBMC/IC50 K-562): 0.81
IC50 (HL-60; Homo sapiens): 0.35 µM
Selectivity index (HL-60; IC50 BJ/IC50 HL-60): 5.29
Selectivity index (HL-60; IC50 MRC-5/IC50 HL-60): 4.86
IC50 (MRC-5; Homo sapiens, MRC5): 1.7 µM
IC50 (BJ; Homo sapiens): 1.85 µM
tumor inhibition (HepG2 cell xenografts; 1 mg/kg i.p. once a day): 32.2%
mean tumor weight (HepG2 cell xenografts; 1 mg/kg i.p. once a day): 665 mg
IC50 (PBMC; Homo sapiens): 1.33 µM
apoptosis (HepG2 cells; HepG2, DOX 1 μM, positive control): also led to apoptosis
